According to patent publication US7977512B2, “Amine derivative, and production method and use thereof” (Kureha Corporation, priority 2005, dated 2011):
Where a name gives a salt, the structure may show the parent alone.

System: not given
Test: not given
Details: not given

melting point | SMILES
105 to 106 °C | CCCN(CCC)CCCCN(CCOC(C)=O)Cc1ccc(CN)cc1.Cl
205 to 210 °C | CCCN(CCC)CCCCNCc1ccc(CN)cc1.Cl

SMILES | melting point
CCCN(CCC)CCCCNCc1ccc(C#N)cc1 (as salt: hydrochloride) [(2aa), 4-[(4-dipropylaminobutyl)amino]methylbenzonitrile hydrochloride] | 198 to 200 °C

System: Pseudoperonospora cubensis
Test: Protection test of Pseudoperonospora cubensis on cucumber cotyledons
Format: in vivo
Details: 144 h, spraying concentration 1000 ppm, water dispersible powder sprayed onto cucumber cotyledons (var. Sagami-Hanjiro) one day before inoculation, incidence scored six days after inoculation, read-out: Protective value
Procedure: Water dispersible powders were prepared in the same manner as in Formulation Example 2 using the compound (2a), (2aa), (2b), (2ba), (15), (16), (17), (18), (19), or (20). The each water dispersible powder was diluted with water to a predetermined concentration (1000 mg/l) and suspended. The diluted suspension was sprayed onto cucumber cotyledons (var. Sagami-Hanjiro) grown in a rectangular plastic pot (6.4 cm×6.4 cm) at 100 1/10 a. After air-drying the sprayed leaves one day, a Pseudoperonospora cubensis spore suspension was sprayed onto the leaves to inoculate, and the leaves were maintained at 25° C. under high humidity conditions. After six days from the inoculation, the incidence of Pseudoperonospora cubensis was investigated according to the following criteria. The protective value is calculated according to the following equation 1.
Protective value(%)=(1−average incidence in sprayed area/average incidence in non-sprayed area)×100 [Equation 1]

SMILES | pest or weed control at 1000 ppm
CCCN(CCC)CCCCN(Cc1ccc(C#N)cc1)Cc1ccc(C)o1 [(17), 4-{[(4-dipropylaminobutyl)-(5-methylfuran-2-ylmethyl)amino]methyl}benzonitrile] | 100%
CCCN(CCC)CCCCN(CC(=O)OCc1ccccc1)Cc1ccc(C#N)cc1 [(20), [(4-cyanobenzyl)-(4-dipropylaminobutyl)amino]benzyl acetate] | 100%
CCCN(CCC)CCCCN(C)Cc1ccc(C#N)cc1 [(2b), 4-[(4-dipropylaminobutyl)methylamino]methylbenzonitrile] | 100%
CCCN(CCC)CCCCN(Cc1ccc(C#N)cc1)Cc1ccc[nH]1 [(18), 4-{[(4-dipropylaminobutyl)-(1H-pyrrol-2-ylmethyl)amino]methyl}benzonitrile] | 100%
CCCN(CCC)CCCCNCc1ccc(C#N)cc1 [(2a), 4-[(4-dipropylaminobutyl)amino]methylbenzonitrile] | 100%
CCCN(CCC)CCCCN(Cc1ccc(C#N)cc1)Cc1ccc(OC)cc1 [(19), 4-{[(4-dipropylaminobutyl)-(4-methoxybenzyl)amino]-methyl}-benzonitrile] | 90%
CCCN(CCC)CCCCN(Cc1ccc(C#N)cc1)Cc1ccc(N(CC)CC)cc1 [(16), 4-{[(4-diethylaminobenzyl)-(4-dipropylaminobutyl)amino]methyl}benzonitrile] | 100%
CCCN(CCC)CCCCN(Cc1ccc(Br)cc1)Cc1ccc(C#N)cc1 [(15), 4-{[(4-bromobenzyl)-(4-dipropylaminobutyl)amino]methyl}benzonitrile] | 100%
